Results taken from patent publication US11077100B2, “Tetrahydroquinoline derivatives as P2X7 receptor antagonists” (RaQualia Pharma Inc., priority 2017, dated 2021).
pIC50: −log10 of the molar value.

How the values were obtained:
rat P2X7 = rat P2X7 (Rattus norvegicus (Rat), UniProt Q64663); experiment: Rat P2X7 functional assay (Ca2+ influx, Fluo-4, FDSS); format: cell-based; settings: HEK293 cells stably expressing rat P2X7; BzATP final 10 microM; 7-point dose-response; read-out: Antagonistic activities with respect to the rat P2X7 receptor (IC50)
Chain of rat P2X7 (Q64663 whole entry): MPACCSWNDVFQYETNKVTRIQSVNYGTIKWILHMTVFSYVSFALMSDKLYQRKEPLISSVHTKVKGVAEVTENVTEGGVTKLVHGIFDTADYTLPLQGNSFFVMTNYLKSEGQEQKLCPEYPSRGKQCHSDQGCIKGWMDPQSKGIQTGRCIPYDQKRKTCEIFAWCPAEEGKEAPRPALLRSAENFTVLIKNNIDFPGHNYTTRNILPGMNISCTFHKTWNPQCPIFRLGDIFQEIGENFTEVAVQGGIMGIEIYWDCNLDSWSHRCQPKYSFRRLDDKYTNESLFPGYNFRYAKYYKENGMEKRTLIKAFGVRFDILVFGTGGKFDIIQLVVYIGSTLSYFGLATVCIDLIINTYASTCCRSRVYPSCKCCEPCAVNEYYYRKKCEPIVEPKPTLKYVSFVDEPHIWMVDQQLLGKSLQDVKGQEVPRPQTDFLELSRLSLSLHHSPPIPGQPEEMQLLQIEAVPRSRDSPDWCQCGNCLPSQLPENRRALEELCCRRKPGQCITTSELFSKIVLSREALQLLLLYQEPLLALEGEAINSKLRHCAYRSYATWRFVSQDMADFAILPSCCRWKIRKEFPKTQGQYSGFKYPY
Procedure: Rat P2X7 Functional Assay
The functional activity of compounds was determined by measuring changes in intracellular calcium concentration using a Ca^2+-sensitive fluorescent dye, Fluo-4 (Molecular Probes). The changes in fluorescent signal were monitored by the cell imaging technology by Hamamatsu Photonics's Functional Drug Screening System (FDSS). Increases in intracellular Ca^2+ concentration were readily detected upon activation with BzATP.
HEK293 cells stably expressing rat P2X7 (GenBank accession number NM_019256) were grown in Corning CellBIND cell culture flasks, in a 5% CO2 humidified incubator to about 80% confluence. Media composition consisted of Dulbecco's Modified Eagle Medium (high glucose), 10% fetal bovine serum ([…]), 100 units/[…] Penicillin, 100 microg/mL Streptomycin and 250 microg/mL Geneticine.
1. […] Plate-out HEK293-rat P2X7 cells (40 microL medium containing 5,000 cells per well) into poly-D-lysine coated 384-well plates (BD Falcon) at 24 h prior to assay.
2. Incubate at 37° C. in 5% CO2.
3. Incubate the plate at 37° C. in 5% CO2 for 1 h.
5. Test compounds were prepared at 100× the test concentration in DMSO by serial dilution with Biomek-FX liquid handling instrument. 33× diluted compound solutions in assay buffer were prepared in intermediate compound plate with Biomek-NX liquid handling instrument. A further 3× dilution occurred in below steps 6 and 7.
6. Add 20 microL of 33× diluted compound solutions into each well and leave the plate for 10 min under the dark at room temperature.
7. Measure activity by FDSS as follows: • Set the assay plate on the stacker of FDSS. • Start the detection of fluorescence intensity at 540 nm by 480 nm exicitation. • After 30 seconds, add 20 microL of assay buffer containing 30 microM BzATP (final 10 microM).
IC50 values for compounds of the present invention were determined from 7-point dose-response studies. Curves were generated using the average of duplicate wells for each data point. Finally, the IC50 values are calculated with the best-fit dose curve determined by XLfit (ID Business Solutions Ltd.).

human P2X7 = human P2X7 (Homo sapiens (Human), UniProt Q99572); experiment: Human P2X7 functional assay (Ca2+ influx, Fluo-4, FDSS); format: cell-based; settings: antagonistic activity with respect to the human P2X7 receptor; BzATP final concentration 80 microM
Chain of human P2X7 (Q99572 whole entry): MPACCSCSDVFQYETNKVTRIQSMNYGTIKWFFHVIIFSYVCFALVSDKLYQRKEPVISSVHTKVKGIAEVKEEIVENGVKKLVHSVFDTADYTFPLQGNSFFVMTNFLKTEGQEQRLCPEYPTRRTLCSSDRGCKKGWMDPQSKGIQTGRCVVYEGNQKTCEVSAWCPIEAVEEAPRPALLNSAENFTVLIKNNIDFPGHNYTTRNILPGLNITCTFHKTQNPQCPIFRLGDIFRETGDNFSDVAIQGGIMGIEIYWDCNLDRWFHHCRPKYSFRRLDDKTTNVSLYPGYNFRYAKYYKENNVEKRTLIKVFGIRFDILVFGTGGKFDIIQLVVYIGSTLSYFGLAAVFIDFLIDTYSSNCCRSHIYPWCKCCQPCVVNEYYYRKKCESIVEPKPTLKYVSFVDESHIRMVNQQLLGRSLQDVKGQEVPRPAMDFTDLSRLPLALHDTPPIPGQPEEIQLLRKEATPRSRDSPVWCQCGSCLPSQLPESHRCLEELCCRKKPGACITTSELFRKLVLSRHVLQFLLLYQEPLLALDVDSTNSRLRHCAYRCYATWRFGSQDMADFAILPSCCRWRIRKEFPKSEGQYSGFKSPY
Method in brief: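 Ca2+ influx was triggered with BzATP (80 μM final) after a 10-min room-temperature compound preincubation and monitored with Fluo-4 (ex 480/em 540 nm) on FDSS. The cells were HEK293 stably carrying FLAG-tagged human P2X7. Duplicate-averaged 7-point dose-responses gave IC50s.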

Row | SMILES | pIC50 (rat P2X7) | pIC50 (human P2X7)
1 | O=C(NCc1ccc(F)cc1C(F)(F)F)[C@]1(F)CC[C@H](O)c2ncccc21 [Example 144, (5S,8S)-5-fluoro-N-(4-fluoro-2-(trifluoromethyl)benzyl)-8-hydroxy-5,6,7,8-tetrahydroquinoline-5-carboxamide] | > 6.00 | –
2 | NC(=O)CC1CCC(C(=O)NCc2cccc(C(F)(F)F)c2Cl)c2cccnc21 (centres unmarked) [Example 32, (2-amino-2-oxoethyl)-N-(2-chloro-3-(trifluoro-methyl)benzyl)-5,6,7,8-tetra-hydroquinoline-5-carboxamide] | > 6.00 | –
3 | Cc1cc(Cl)cc(Cl)c1CNC(=O)[C@]1(F)CC[C@H](O)c2ncccc21 [Example 127, (5S,8S)-N-(2,4-dichloro-6-methylbenzyl)-fluoro-8-hydroxy-5,6,7,8-tetrahydroquinoline-5-carboxamide] | > 6.00 | –
4 | O=C(NCc1ccc(C(F)(F)F)cc1Cl)[C@]1(F)CC[C@H](O)c2ncccc21 [Example 187, (5S,8S)-N-(2-chloro-4-(trifluoromethyl)benzyl)-5-fluoro-8-hydroxy-5,6,7,8-tetrahydroquinoline-5-carboxamide] | > 6.00 | –
5 | CO[C@H]1CC[C@@](F)(C(=O)NCc2c(F)cc(Cl)cc2Cl)c2cccnc21 [Example 335, (5S,8S)-N-(2,4-dichloro-6-fluorobenzyl)-5-fluoro-8-methoxy-5,6,7,8-tetrahydroquinoline-5-carboxamide] | > 6.00 | –
6 | C[C@]1(O)CC[C@@](F)(C(=O)NCc2c(F)cc(Cl)cc2Cl)c2cccnc21 [Example 265, (5S,8S)-N-(2,4-dichloro-6-fluorobenzyl)-5-fluoro-8-hydroxy-8-methyl-5,6,7,8-tetrahydroquinoline-5-carboxamide] | > 6.00 | –
7 | CS(=O)(=O)C1CC[C@@](F)(C(=O)NCc2ccc(Cl)cc2Cl)c2cccnc21 (some centres unmarked) [Example 350] | > 6.00 | –
8 | O=C(NCc1ccc(F)c(F)c1Cl)[C@]1(F)CC[C@H](O)c2ncccc21 [Example 174, (5S,8S)-N-(2-chloro-3,4-difluorobenzyl)-5-fluoro-8-hydroxy-5,6,7,8-tetrahydroquinoline-5-carboxamide] | > 6.00 | –
9 | O=C(NCc1cccc(C(F)(F)F)c1F)[C@]1(F)CC[C@H](O)c2ncccc21 [Example 175, (5S,8S)-5-fluoro-N-(2-fluoro-3-(trifluoromethyl)benzyl)-8-hydroxy-5,6,7,8-tetrahydroquinoline-5-carboxamide] | > 6.00 | –
10 | O=C(NCc1ccc(Cl)cc1Cl)[C@@]1(F)CC[C@H](F)c2ncccc21 [Example 353, (5R,8S)-N-(2,4-dichlorobenzyl)-5,8-difluoro-5,6,7,8-tetrahydroquinoline-5-carboxamide] | – | 7.00 to 7.30
11 | O=C(NCc1ccc(Cl)c(Cl)c1)[C@]1(F)CC[C@H](O)c2ncccc21 [Example 197, (5S,8S)-N-(3,4-dichlorobenzyl)-5-fluoro-8-hydroxy-5,6,7,8-tetrahydroquinoline-5-carboxamide] | – | > 7.30
12 | Cc1cnc2c(c1)[C@](F)(C(=O)NCc1ccc(F)cc1Cl)CC[C@]2(C)O [Example 276, (5S,8S)-N-(2-chloro-4-fluorobenzyl)-5-fluoro-8-hydroxy-3,8-dimethyl-5,6,7,8-tetrahydroquinoline-5-carboxamide] | – | 6.00 to 6.52
13 | O=C(NCc1cccc(C(F)(F)F)c1Cl)[C@H]1CC[C@H](O)c2ncccc21 [Example 86, (5S,8S)-N-(2-chloro-3-(trifluoromethyl)benzyl)-8-hydroxy-5,6,7,8-tetra-hydroxyqinoline-5-carboxamide] | – | 6.52 to 7.00
14 | O=C(NCc1cc(F)ccc1Cl)[C@]1(F)CC[C@H](O)c2ncccc21 [Example 204, (5S,8S)-N-(2-chloro-5-fluorobenzyl)-5-fluoro-8-hydroxy-5,6,7,8-tetrahydroquinoline-5-carboxamide] | – | 7.00 to 7.30
15 | O=C(NCc1cc(F)c(F)cc1Cl)[C@@]1(F)CC[C@@H](O)c2ncccc21 [Example 162, (5R,8R)-N-(2-chloro-4,5-difluorobenzyl)-5-fluoro-8-hydroxy-5,6,7,8-tetrahydroquinoline-5-carboxamide] | – | 6.52 to 7.00
16 | O=C(NCc1ccc(OC(F)(F)F)cc1F)[C@]1(F)CC[C@H](O)c2ncccc21 [Example 207, (5S,8S)-5-fluoro-N-(2-fluoro-4-(trifluoromethoxy)benzyl)-8-hydroxy-5,6,7,8-tetrahydroquinoline-5-carboxamide] | – | 6.52 to 7.00
17 | O=C(NCc1ccc(Cl)cc1F)[C@H]1CC[C@H](O)c2ncccc21 [Example 77, (5S,8S)-N-(4-chloro-2-fluorobenzyl)-8-hydroxy-5,6,7,8-tetrahydroquinoline-5-carboxamide] | – | 6.00 to 6.52
18 | O=C(N[C@@H]1C[C@H]1c1ccccc1)[C@]1(F)CC[C@H](O)c2ncccc21 [Example 222, (5S,8S)-5-fluoro-8-hydroxy-N-((1R,2S)-2-phenylcyclopropyl)-5,6,7,8-tetrahydroquinoline-5-carboxamide] | – | 6.00 to 6.52
19 | Cc1cc(Cl)cc(Cl)c1CNC(=O)[C@@]1(F)CC[C@H](O)c2ncccc21 [Example 99, (5R,8S)-N-(2,4-dichloro-6-methylbenzyl)-5-fluoro-8-hydroxy-5,6,7,8-tetrahydroquinoline-5-carboxamide] | – | > 7.30
20 | Cc1cnc2c(c1)[C@](F)(C(=O)NCc1ccc(Cl)cc1Cl)CC[C@@]2(O)CO [Example 325, (5S,8S)-N-(2,4-dichlorobenzyl)-5-fluoro-8-hydroxy-8-(hydroxymethyl)-3-methyl-5,6,7,8-tetrahydroquinoline-5-carboxamide] | – | 5.52 to 6.00
21 | Cc1cnc2c(c1)[C@](F)(C(=O)NCc1ccc(F)cc1Cl)CC[C@@H]2O [Example 244, (5S,8S)-N-(2-chloro-4-fluorobenzyl)-5-fluoro-8-hydroxy-3-methyl-5,6,7,8-tetrahydroquinoline-5-carboxamide] | – | 5.52 to 6.00
22 | O=C(NCc1c(Cl)cc(Cl)cc1CO)[C@@]1(F)CC[C@H](O)c2ncccc21 [Example 103, (5R,8S)-N-(2,4-dichloro-6-hydroxymethylbenzyl)-5-fluoro-8-hydroxy-5,6,7,8-tetrahydroquinoline-5-carboxamide] | – | 6.52 to 7.00
23 | O=C(NCc1c(F)cc(Cl)cc1Cl)[C@@H]1CC[C@@H](O)c2ncccc21 [Example 91, (5R,8R)-N-(2,4-dichloro-6-fluorobenzyl)-8-hy-droxy-5,6,7,8-tetrahydro-quinoline-5-carboxamide] | – | 6.52 to 7.00
24 | O=C(NCc1ccc(F)cc1C(F)(F)F)[C@@]1(F)CC[C@@H](O)c2ncccc21 [Example 143, (5R,8R)-5-fluoro-N-(4-fluoro-2-(trifluoromethyl)benzyl)-8-hydroxy-5,6,7,8-tetrahydroquinoline-5-carboxamide] | – | 6.00 to 6.52
25 | Cc1ncsc1C(CNC(=O)[C@]1(F)CC[C@H](O)c2ncccc21)N1CCC(F)(F)CC1 (stereo partly drawn) [Example 236, (5S,8S)-N-(2-(4,4-difluoropiperidin-1-yl)-2-(4-methylthiazol-5-yl)ethyl)-5-fluoro-8-hydroxy-5,6,7,8-tetrahydroquinoline-5-carboxamide] | – | 5.52 to 6.00
26 | O=C(NCc1cc(C(F)(F)F)ccc1Cl)[C@]1(F)CC[C@H](O)c2ncccc21 [Example 209, (5S,8S)-N-(2-chloro-5-(trifluoromethyl)benzyl)-5-fluoro-8-hydroxy-5,6,7,8-tetrahydroquinoline 5-carboxamide] | – | 6.52 to 7.00
27 | O=C(NCC1(c2ccc(Cl)cc2Cl)CCOCC1)[C@]1(F)CC[C@@](O)(CO)c2ncccc21 [Example 332, (5S,8S)-N-((4-(2,4-dichlorophenyl)tetrahydro-2H-pyran-4-yl)methyl)-5-fluoro-8-hydroxy-8-(hydroxymethyl)-5,6,7,8-tetrahydroquinoline-5-carboxamide] | – | 5.52 to 6.00
28 | O=C(NCc1c(F)cc(Cl)cc1Cl)[C@@]1(F)CC[C@H](O)c2ncccc21 [Example 116, (5R,8S)-N-(2,4-dichloro-6-fluorobenzyl)-5-fluoro-8-hydroxy-5,6,7,8-tetrahydroquinoline-5-carboxamide] | – | 6.00 to 6.52
29 | O=C(NCC1(c2ccc(F)cc2)CC1)[C@]1(F)CC[C@H](O)c2ncccc21 [Example 220, (5S,8S)-5-fluoro-N-((1-(4-fluorophenyl)cyclopropyl)methyl)-8-hydroxy-5,6,7,8-tetrahydroquinoline-5-carboxamide] | – | 6.00 to 6.52
